Source: PubChem BioAssay AID272 (DTP/NCI, 2004)
Values joined by “and” are separate entries in the source; they are usually repeats but may differ in a detail not shown here. Equal entries are not always repeated. Inconclusive results are not listed.

Test system: Lewis lung carcinoma i.m., BDF1 mice, T/C %
Assay: NCI In Vivo Anticancer Drug Screen. Data for tumor model Lewis Lung Carcinoma (intramuscular) in B6D2F1 (BDF1) mice
Details: endpoint: mean tumor weight, higher = larger tumour
How it was run: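 Transplantable tumour model; readout survival or tumour size; value = treated (T) / vehicle control (C).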

Question: How did the T/C (dose: 2.0 mg/kg/injection, schedule: Q06HX008 (ip), vehicle: Klucel (hydroxypropylcellulose) (HPC)) turn out when CCc1nc(N)nc(N)c1-c1ccc(Cl)cc1 was run?
Answer: 104 % of control

Question: And the T/C (dose: 4.0 mg/kg/injection, schedule: Q01DX009 (ip), vehicle: Klucel (hydroxypropylcellulose) (HPC))?
Answer: 87 % of control

Question: What about the T/C (dose: 4.0 mg/kg/injection, schedule: Q01DX009 (oral), vehicle: Klucel (hydroxypropylcellulose) (HPC)) of the same compound?
Answer: 37 % of control

Question: What about the T/C (dose: 4.0 mg/kg/injection, schedule: Q01DX009 (sc), vehicle: Klucel (hydroxypropylcellulose) (HPC)) of the same compound?
Answer: 95 % of control

Question: What about the T/C (dose: 4.0 mg/kg/injection, schedule: Q06HX004 (ip), vehicle: Klucel (hydroxypropylcellulose) (HPC)) of the same compound?
Answer: 82 % of control

Question: And the T/C (dose: 4.0 mg/kg/injection, schedule: Q06HX012 (ip), vehicle: Klucel (hydroxypropylcellulose) (HPC))?
Answer: 71 % of control

Question: And the T/C (dose: 8.0 mg/kg/injection, schedule: Q01DX001 (sc), vehicle: Klucel (hydroxypropylcellulose) (HPC))?
Answer: 66 % of control

Question: And the T/C (dose: 8.0 mg/kg/injection, schedule: Q01DX009 (ip), vehicle: Klucel (hydroxypropylcellulose) (HPC))?
Answer: 67 % of control

Question: What about the T/C (dose: 8.0 mg/kg/injection, schedule: Q01DX009 (oral), vehicle: Klucel (hydroxypropylcellulose) (HPC)) of the same compound?
Answer: 31 % of control

Question: What about the T/C (dose: 8.0 mg/kg/injection, schedule: Q01DX009 (sc), vehicle: Klucel (hydroxypropylcellulose) (HPC)) of the same compound?
Answer: 76 % of control

Question: What about the T/C (dose: 8.0 mg/kg/injection, schedule: Q04DX003 (ip), vehicle: Klucel (hydroxypropylcellulose) (HPC)) of the same compound?
Answer: 92 % of control

Question: And the T/C (dose: 8.0 mg/kg/injection, schedule: Q06HX004 (ip), vehicle: Klucel (hydroxypropylcellulose) (HPC))?
Answer: 75 % of control

Question: And the T/C (dose: 8.0 mg/kg/injection, schedule: Q06HX008 (ip), vehicle: Klucel (hydroxypropylcellulose) (HPC))?
Answer: 65 % of control and 68 % of control

Question: And the T/C (dose: 8.0 mg/kg/injection, schedule: Q06HX012 (ip), vehicle: Klucel (hydroxypropylcellulose) (HPC))?
Answer: 57 % of control

Question: What about the T/C (dose: 8.0 mg/kg/injection, schedule: Q08DX002 (ip), vehicle: Klucel (hydroxypropylcellulose) (HPC)) of the same compound?
Answer: 85 % of control

Question: And the T/C (dose: 12.5 mg/kg/injection, schedule: Q01DX011 (ip), vehicle: steriod suspending solution)?
Answer: 65 % of control

Question: And the T/C (dose: 16.0 mg/kg/injection, schedule: Q01DX001 (ip), vehicle: Klucel (hydroxypropylcellulose) (HPC))?
Answer: 71 % of control

Question: And the T/C (dose: 16.0 mg/kg/injection, schedule: Q01DX001 (oral), vehicle: Klucel (hydroxypropylcellulose) (HPC))?
Answer: 84 % of control

Question: And the T/C (dose: 16.0 mg/kg/injection, schedule: Q01DX001 (sc), vehicle: Klucel (hydroxypropylcellulose) (HPC))?
Answer: 75 % of control and 80 % of control

Question: And the T/C (dose: 16.0 mg/kg/injection, schedule: Q01DX009 (ip), vehicle: Klucel (hydroxypropylcellulose) (HPC))?
Answer: 83 % of control and 98 % of control

Question: What about the T/C (dose: 16.0 mg/kg/injection, schedule: Q01DX009 (oral), vehicle: Klucel (hydroxypropylcellulose) (HPC)) of the same compound?
Answer: 38 % of control

Question: And the T/C (dose: 16.0 mg/kg/injection, schedule: Q01DX009 (sc), vehicle: Klucel (hydroxypropylcellulose) (HPC))?
Answer: 80 % of control

Question: And the T/C (dose: 16.0 mg/kg/injection, schedule: Q04DX003 (ip), vehicle: Klucel (hydroxypropylcellulose) (HPC))?
Answer: 73 % of control and 78 % of control

Question: What about the T/C (dose: 16.0 mg/kg/injection, schedule: Q06HX004 (ip), vehicle: Klucel (hydroxypropylcellulose) (HPC)) of the same compound?
Answer: 84 % of control

Question: And the T/C (dose: 16.0 mg/kg/injection, schedule: Q06HX008 (ip), vehicle: Klucel (hydroxypropylcellulose) (HPC))?
Answer: 58 % of control and 73 % of control

Question: What about the T/C (dose: 16.0 mg/kg/injection, schedule: Q06HX012 (ip), vehicle: Klucel (hydroxypropylcellulose) (HPC)) of the same compound?
Answer: 56 % of control

Question: And the T/C (dose: 25.0 mg/kg/injection, schedule: Q01DX011 (ip), vehicle: steriod suspending solution)?
Answer: 57 % of control

Question: What about the T/C (dose: 32.0 mg/kg/injection, schedule: Q01DX001 (ip), vehicle: Klucel (hydroxypropylcellulose) (HPC)) of the same compound?
Answer: 75 % of control

Question: And the T/C (dose: 32.0 mg/kg/injection, schedule: Q01DX001 (oral), vehicle: Klucel (hydroxypropylcellulose) (HPC))?
Answer: 95 % of control

Question: What about the T/C (dose: 32.0 mg/kg/injection, schedule: Q01DX001 (sc), vehicle: Klucel (hydroxypropylcellulose) (HPC)) of the same compound?
Answer: 85 % of control and 94 % of control

Question: And the T/C (dose: 32.0 mg/kg/injection, schedule: Q01DX009 (oral), vehicle: Klucel (hydroxypropylcellulose) (HPC))?
Answer: 32 % of control

Question: And the T/C (dose: 32.0 mg/kg/injection, schedule: Q01DX009 (sc), vehicle: Klucel (hydroxypropylcellulose) (HPC))?
Answer: 71 % of control

Question: What about the T/C (dose: 32.0 mg/kg/injection, schedule: Q04DX003 (ip), vehicle: Klucel (hydroxypropylcellulose) (HPC)) of the same compound?
Answer: 76 % of control and 94 % of control

Question: What about the T/C (dose: 32.0 mg/kg/injection, schedule: Q06HX008 (ip), vehicle: Klucel (hydroxypropylcellulose) (HPC)) of the same compound?
Answer: 62 % of control

Question: What about the T/C (dose: 32.0 mg/kg/injection, schedule: Q08DX002 (ip), vehicle: Klucel (hydroxypropylcellulose) (HPC)) of the same compound?
Answer: 74 % of control

Question: What about the T/C (dose: 50.0 mg/kg/injection, schedule: Q01DX011 (ip), vehicle: steriod suspending solution) of the same compound?
Answer: 50 % of control

Question: And the T/C (dose: 64.0 mg/kg/injection, schedule: Q01DX001 (ip), vehicle: Klucel (hydroxypropylcellulose) (HPC))?
Answer: 78 % of control

Question: What about the T/C (dose: 64.0 mg/kg/injection, schedule: Q01DX001 (oral), vehicle: Klucel (hydroxypropylcellulose) (HPC)) of the same compound?
Answer: 85 % of control

Question: What about the T/C (dose: 64.0 mg/kg/injection, schedule: Q01DX001 (sc), vehicle: Klucel (hydroxypropylcellulose) (HPC)) of the same compound?
Answer: 78 % of control and 81 % of control
